The term IC50 denotes the concentration that gives 50% inhibition.

Molecules are shown by their SMILES.

Beta-3 Adrenergic Receptor, sequence (P13945 whole entry, species assumed): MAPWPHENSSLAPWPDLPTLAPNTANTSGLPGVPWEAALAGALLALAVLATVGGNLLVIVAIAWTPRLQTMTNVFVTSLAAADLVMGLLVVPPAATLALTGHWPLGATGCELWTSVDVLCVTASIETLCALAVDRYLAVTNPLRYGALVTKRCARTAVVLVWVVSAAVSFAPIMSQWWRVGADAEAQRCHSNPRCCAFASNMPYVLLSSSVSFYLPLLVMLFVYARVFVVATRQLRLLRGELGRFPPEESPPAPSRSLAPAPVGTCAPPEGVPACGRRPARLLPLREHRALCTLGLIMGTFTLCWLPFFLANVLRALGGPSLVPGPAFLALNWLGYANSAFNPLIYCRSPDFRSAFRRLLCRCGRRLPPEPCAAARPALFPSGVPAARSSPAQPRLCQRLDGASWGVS

The target in this assay is Beta-3 Adrenergic Receptor (Homo sapiens (Human), UniProt P13945). Description: HTRF cAMP antagonist assay (IC50 determination). It is filed as cell-based. As to conditions: CHO-K1 cells stably expressing recombinant receptor; antagonism of isoproterenol at EC90; cAMP readout. Summed up:
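In this functional readout, recombinant CHO-K1 cells received compound, then isoproterenol at its EC90. After 1 h at room temperature, cAMP levels were determined by HTRF using an on-plate standard curve, and IC50 values were fitted.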
On the technique in general: TR-FRET usually uses a lanthanide donor and a delayed reading to cut background.
With `CCOc1ccc(-c2ccc(CN)cc2)cc1S(=O)(=O)N1CCC2(CC1)C[C@H](NC[C@H](O)COc1cccc(S(=O)(=O)COC)c1)CO2` [Compound 230, (S)-1-((S)-8-(4′-(aminomethyl)-4-ethoxybiphenyl-3-ylsulfonyl)-1-oxa-8-azaspiro[4.5]decan-3-ylamino)-3-(3-(methoxymethylsulfonyl)phenoxy)propan-2-ol], the IC50 stood at 15 nM.
Regarding `COc1ccc(S(=O)(=O)N2CCC3(CC2)C[C@H](NC[C@H](O)COc2cccc(S(=O)(=O)C(C)(C)CO)c2)CO3)cc1-c1ccc(CN)cc1` [Compound 223, 2-(3-((S)-3-((S)-8-(4′-(aminomethyl)-6-methoxybiphenyl-3-ylsulfonyl)-1-oxa-8-azaspiro[4.5]decan-3-ylamino)-2-hydroxypropoxy)phenylsulfonyl)-2-methylpropan-1-ol], the IC50 is 83.6 nM.
`CS(=O)(=O)c1cccc(OC[C@@H](O)CNC2COC3(CCN(S(=O)(=O)c4cccc(-c5cncnc5)c4)CC3)C2)c1` (stereo partly drawn) [Compound 71, (2S)-1-(3-(methylsulfonyl)phenoxy)-3-(8-(3-(pyrimidin-5-yl)phenylsulfonyl)-1-oxa-8-azaspiro[4.5]decan-3-ylamino)propan-2-ol]: the IC50 was 39 nM.
Regarding `CCOc1ccc(-c2ccc(C3(N)CC3)cc2)cc1S(=O)(=O)N1CCC2(CC1)C[C@@H](NC[C@H](O)COc1cccc(S(=O)(=O)C3(CO)CC3)c1)CO2` [Compound 172, (S)-1-((R)-8-(4′-(1-aminocyclopropyl)-4-ethoxybiphenyl-3-ylsulfonyl)-1-oxa-8-azaspiro[4.5]decan-3-ylamino)-3-(3-(1-(hydroxymethyl)cyclopropylsulfonyl)phenoxy)propan-2-ol], the IC50 was determined as 50.3 nM.
The figure for `CCOc1ccc(-c2ccc(CN)cc2)cc1S(=O)(=O)N1CCC2(CC1)C[C@H](NC[C@H](O)COc1cccc(S(=O)(=O)C3CC3)c1)CO2` [Compound 160, (S)-1-((S)-8-(4′-(aminomethyl)-4-ethoxybiphenyl-3-ylsulfonyl)-1-oxa-8-azaspiro[4.5]decan-3-ylamino)-3-(3-(cyclopropylsulfonyl)phenoxy)propan-2-ol] is 11.6 nM; for `O=S(=O)(c1cccc(OC[C@@H](O)CN[C@H]2COC3(CCN(S(=O)(=O)c4cnc5ccccc5c4)CC3)C2)c1)C1CCC1` [Compound 138, (S)-1-(3-(cyclobutylsulfonyl)phenoxy)-3-((R)-8-(quinolin-3-ylsulfonyl)-1-oxa-8-azaspiro[4.5]decan-3-ylamino)propan-2-ol] it is 20.4 nM; for `O=S(=O)(c1cccc(-c2ccc(CN3CCOCC3)cc2)c1)N1CCC2(CC1)C[C@@H](NC[C@H](O)COc1cccc(S(=O)(=O)C3(CO)CC3)c1)CO2` [Compound 266, (S)-1-(3-(1-(hydroxymethyl)cyclopropylsulfonyl)phenoxy)-3-((R)-8-(4′-(morpholinomethyl)biphenyl-3-ylsulfonyl)-1-oxa-8-azaspiro[4.5]decan-3-ylamino)propan-2-ol] it is 1290 nM.
As to `CCC(C)(C)NCc1ccc(-c2cccc(S(=O)(=O)N3CCC4(CC3)C[C@H](NC[C@H](O)COc3cccc(S(=O)(=O)C5(CO)CC5)c3)CO4)c2)cc1` [Compound 241, (S)-1-(3-(1-(hydroxymethyl)cyclopropylsulfonyl)phenoxy)-3-((S)-8-(4′-((tert-pentylamino)methyl)biphenyl-3-ylsulfonyl)-1-oxa-8-azaspiro[4.5]decan-3-ylamino)propan-2-ol], the IC50 came to 21.1 nM.
Under `Cc1cc(-c2cccc(S(=O)(=O)N3CCC4(CC3)CC(NC[C@H](O)COc3cccc(S(C)(=O)=O)c3)CO4)c2)ccn1` (stereo partly drawn) [Compound 44, (2S)-1-(8-(3-(2-methylpyridin-4-yl)phenylsulfonyl)-1-oxa-8-azaspiro[4.5]decan-3-ylamino)-3-(3-(methylsulfonyl)phenoxy)propan-2-ol] stands 21.5 nM; under `CS(=O)(=O)c1cccc(OC[C@@H](O)CN[C@@H]2COC3(CCN(S(=O)(=O)c4cnc5ccccc5c4)CC3)C2)c1` [Compound 85, (S)-1-(3-(methylsulfonyl)phenoxy)-3-((S)-8-(quinolin-3-ylsulfonyl)-1-oxa-8-azaspiro[4.5]decan-3-ylamino)propan-2-ol], 17.8 nM.
As for `O=S(=O)(c1cccnc1)N1CCC2(CC1)C[C@@H](NC[C@H](O)COc1cccc(S(=O)(=O)C3(CO)CC3)c1)CO2` [Compound 195, (S)-1-(3-(1-(hydroxymethyl)cyclopropylsulfonyl)phenoxy)-3-((R)-8-(pyridin-3-ylsulfonyl)-1-oxa-8-azaspiro[4.5]decan-3-ylamino)propan-2-ol], the IC50 stood at 1530 nM.
The figure for `CS(=O)(=O)c1cccc(OC[C@@H](O)CN[C@@H]2COC3(CCN(S(=O)(=O)c4ccc5ccccc5c4)CC3)C2)c1` [Compound 4, (S)-1-(3-(methylsulfonyl)phenoxy)-3-((S)-8-(naphthalen-2-ylsulfonyl)-1-oxa-8-azaspiro[4.5]decan-3-ylamino)propan-2-ol] is 4.45 nM; for `Cc1ccc(-c2cccc(S(=O)(=O)N3CCC4(CC3)C[C@@H](NC[C@H](O)COc3cccc(S(=O)(=O)C5(CO)CC5)c3)CO4)c2)cc1` [Compound 170, (S)-1-(3-(1-(hydroxymethyl)cyclopropylsulfonyl)phenoxy)-3-((R)-8-(4′-methylbiphenyl-3-ylsulfonyl)-1-oxa-8-azaspiro[4.5]decan-3-ylamino)propan-2-ol] it is 416 nM.
The figure for `O=S(=O)(CCO)c1cccc(OC[C@@H](O)CN[C@H]2COC3(CCN(S(=O)(=O)c4ccc5c(c4)OCCC5)CC3)C2)c1` [Compound 87, (S)-1-((R)-8-(chroman-7-ylsulfonyl)-1-oxa-8-azaspiro[4.5]decan-3-ylamino)-3-(3-(2-hydroxyethylsulfonyl)phenoxy)propan-2-ol] is 41.1 nM; for `CCOc1ccc(-c2ccc(C(C)(C)CN)cc2)cc1S(=O)(=O)N1CCC2(CC1)C[C@H](NC[C@H](O)COc1cccc(S(=O)(=O)C3(CO)CC3)c1)CO2` [Compound 176, (S)-1-((S)-8-(4′-(1-amino-2-methylpropan-2-yl)-4-ethoxybiphenyl-3-ylsulfonyl)-1-oxa-8-azaspiro[4.5]decan-3-ylamino)-3-(3-(1-(hydroxymethyl)cyclopropylsulfonyl)phenoxy)propan-2-ol] it is 58.4 nM; for `CS(=O)(=O)c1cccc(OC[C@H](O)CN[C@H]2COC3(CCN(S(=O)(=O)c4ccc5ccccc5c4)CC3)C2)c1` [Compound 23, (R)-1-(3-(methylsulfonyl)phenoxy)-3-((R)-8-(naphthalen-2-ylsulfonyl)-1-oxa-8-azaspiro[4.5]decan-3-ylamino)propan-2-ol] it is 242 nM.
Under `CS(=O)(=O)c1cccc(OC[C@H](O)CNC2COC3(CCN(S(=O)(=O)c4ccc5ccccc5c4)CC3)C2)c1` (stereo partly drawn) [Compound 2, (2R)-1-(3-(methylsulfonyl)phenoxy)-3-(8-(naphthalen-2-ylsulfonyl)-1-oxa-8-azaspiro[4.5]decan-3-ylamino)propan-2-ol] stands 44.8 nM.
As to `O=S(=O)(CCO)c1cccc(OC[C@@H](O)CN[C@H]2COC3(CCN(S(=O)(=O)c4ccc5ncccc5c4)CC3)C2)c1` [Compound 93, (S)-1-(3-(2-hydroxyethylsulfonyl)phenoxy)-3-((R)-8-(quinolin-6-ylsulfonyl)-1-oxa-8-azaspiro[4.5]decan-3-ylamino)propan-2-ol], the IC50 was determined as 75 nM.

The record behind these values is patent US10927123B2, “Modulators of the beta-3 adrenergic receptor useful for the treatment or prevention of disorders related thereto” (Arena Pharmaceuticals, Inc., priority 2016, dated 2021).
